Data taken from patent US6656509B1, “Combination of selenium-containing compounds with cytostatics” (Biosyn Arzneimittel GmbH, priority 1998, dated 2003).
Where two headings read alike, the source gives them in different places.

Legend:
RXF 423 = experiment: clonogenic assay (colony forming assay); format: cell-based, human; details: RXF 423/16; X183AM
Method: (§1) Solid human tumor xenografts growing subcutaneously in serial passages in thymus-aplastic nude mice (NMRI nu/nu strain, obtained from our own breeding facility) were removed under sterile conditions, the cells were mechanically disaggregated and subsequently incubated with an enzyme cocktail consisting of collagenase (1.2-1.8 U/ml, Worthington), DNAse (375 U/ml, Boehringer Mannheim) und hyaluronidase (29 U/ml, Boehringer Mannheim) in RPMI 1640 at 37° C. for 30 minutes. The cell mixture was passed through sieves of 200 μm and 50 μm mesh size and washed thereafter twice with PBS. The percentage of viable cells was determined in a Neubauer counting chamber using trypan blue exclusion.
(§2) The clonogenic assay was performed according to a modified two-layer soft agar assay described by Hamburger and Salmon (Hamburger and Salmon, Science, 197: 461463, 1977). The bottom layer consisted of 0.2 ml Iscoves' Modified Dulbecco's Medium with 20% fetal calf serum and 0.75% agar. 8×10^3 to 1,6×10^4 cells were added to 0.2 ml of the same culture medium together with 0.4% agar and placed in already coated 24-multiwell dishes. Test substances were applied by continuous exposure (drug overlay) in 0.2 ml medium. Every dish included six control wells containing the vehicle- and drug-treated groups in triplicate at six concentrations.
(§3) Cultures were incubated at 37° and 7% CO2 in a humidified atmosphere for 5 to 15 days (depending on the doubling time of the tumor stem cells) and monitored for colony growth using an inverted microscope. Within this period, in vitro tumor growth led to the formation of colonies with a diameter of ≧50 μm. At the time of maximum colony formation counts were performed with an automatic image analysis system (OMNICOM Fas IV, Biosys GmbH). 24 hours prior to this assay, vital colonies were stained with a sterile aqueous solution of 2-(4-iodophenyl)-3-(4-nitrophenyl)-5-phenyltetrazolium chloride (1 mg/ml, 100 μI/well). Drug effects were expressed in terms of the percentage of surviving cells, obtained by comparison of the mean number of colonies in the treated plates with the mean colony count of the untreated controls (test-versus-control-group value, T/C=colony countTreated Group*100/colony countControl Group).
(§4) Coefficient of variation in the control group ≦50%. IC50 and IC70 values were determined by plotting compound concentration versus cell survival rate. Mean IC50 and IC70 values were calculated according to the formula: [formula]
(§5) with x=specific tumor xenograft and n=total number of tumor xenografts studied. If an IC50 or IC70 value could not be determined within the examined dose range, the lowest or highest concentration studied was used for the calculation.

PRXF DU145X = experiment: clonogenic assay (colony forming assay); format: cell-based, human; details: PRXF DU145X/15, X229AM
Method: as §1, §2, §3, §4, §5

OVXF 899 = experiment: clonogenic assay (colony forming assay); format: cell-based, human; details: OVXF 899/33; X185AM
Method: as §1, §2, §3, §4, §5

MAXF 401NL = experiment: clonogenic assay (colony forming assay); format: cell-based, human; details: MAXF 401/16, X186AM
Method: as §1, §2, §3, §4, §5

LXFL 529 = experiment: clonogenic assay (colony forming assay); format: cell-based, human; details: LXFL 529/18, X182AM
Method: as §1, §2, §3, §4, §5

OVXF 1353 = experiment: clonogenic assay (colony forming assay); format: cell-based, human; details: OVXF 1353/17; X217AM
Method: as §1, §2, §3, §4, §5

LXFS 650 = experiment: clonogenic assay (colony forming assay); format: cell-based, human; details: LXFS 650/9; X199AM
Method: as §1, §2, §3, §4, §5

[1] = oral; cited from earlier work
[2] = cited from earlier work

Q: Which results are given for O=[Se]([O-])[O-].[Na+].[Na+] [sodium selenite]?
A: Test/control (%) at drug concentration [μM] 1. (RXF 423): 92%; Test/control (%) at drug concentration [μM] 10. (RXF 423): 110%; Test/control (%) at drug concentration [μM] 100. (RXF 423): 0%; Test/control (%) at drug concentration [μM] .001 (RXF 423): 99%; Test/control (%) at drug concentration [μM] .01 (RXF 423): 111%; Test/control (%) at drug concentration [μM] .1 (RXF 423): 120%; Test/control (%) class at drug concentration [μM] 1. (RXF 423): − (− (T/C ≧ 50%)); Test/control (%) class at drug concentration [μM] 10. (RXF 423): − (− (T/C ≧ 50%)); Test/control (%) class at drug concentration [μM] 100. (RXF 423): +++ (+++ (T/C ≦ 10%)); Test/control (%) class at drug concentration [μM] .001 (RXF 423): − (− (T/C ≧ 50%)); Test/control (%) class at drug concentration [μM] .01 (RXF 423): − (− (T/C ≧ 50%)); Test/control (%) class at drug concentration [μM] .1 (RXF 423): − (− (T/C ≧ 50%)); Test/control (%) at drug concentration [μM] 1. (PRXF DU145X): 91%; Test/control (%) at drug concentration [μM] 10. (PRXF DU145X): 5%; Test/control (%) at drug concentration [μM] 100. (PRXF DU145X): 0%; Test/control (%) at drug concentration [μM] .001 (PRXF DU145X): 97%; Test/control (%) at drug concentration [μM] .01 (PRXF DU145X): 96%; Test/control (%) at drug concentration [μM] .1 (PRXF DU145X): 92%; Test/control (%) class at drug concentration [μM] 1. (PRXF DU145X): − (− (T/C ≧ 50%)); Test/control (%) class at drug concentration [μM] 10. (PRXF DU145X): +++ (+++ (T/C ≦ 10%)); Test/control (%) class at drug concentration [μM] 100. (PRXF DU145X): +++ (+++ (T/C ≦ 10%)); Test/control (%) class at drug concentration [μM] .001 (PRXF DU145X): − (− (T/C ≧ 50%)); Test/control (%) class at drug concentration [μM] .01 (PRXF DU145X): − (− (T/C ≧ 50%)); Test/control (%) class at drug concentration [μM] .1 (PRXF DU145X): − (− (T/C ≧ 50%)); Test/control (%) at drug concentration [μM] 10. (PRXF DU145X; listed as selenium): < 30%; Test/control (%) at drug concentration [μM] 1. (OVXF 899): 70%; Test/control (%) at drug concentration [μM] 10. (OVXF 899): 73%; Test/control (%) at drug concentration [μM] 100. (OVXF 899): 1%; Test/control (%) at drug concentration [μM] .001 (OVXF 899): 80%; Test/control (%) at drug concentration [μM] .01 (OVXF 899): 79%; Test/control (%) at drug concentration [μM] .1 (OVXF 899): 66%; Test/control (%) class at drug concentration [μM] 1. (OVXF 899): − (− (T/C ≧ 50%)); Test/control (%) class at drug concentration [μM] 10. (OVXF 899): − (− (T/C ≧ 50%)); Test/control (%) class at drug concentration [μM] 100. (OVXF 899): +++ (+++ (T/C ≦ 10%)); Test/control (%) class at drug concentration [μM] .001 (OVXF 899): − (− (T/C ≧ 50%)); Test/control (%) class at drug concentration [μM] .01 (OVXF 899): − (− (T/C ≧ 50%)); Test/control (%) class at drug concentration [μM] .1 (OVXF 899): − (− (T/C ≧ 50%)); Test/control (%) at drug concentration [μM] 1. (MAXF 401NL): 74%; Test/control (%) at drug concentration [μM] 10. (MAXF 401NL): 66%; Test/control (%) at drug concentration [μM] 100. (MAXF 401NL): 8%; Test/control (%) at drug concentration [μM] .1 (MAXF 401NL): 53%; Test/control (%) class at drug concentration [μM] 1. (MAXF 401NL): − (− (T/C ≧ 50%)); Test/control (%) class at drug concentration [μM] 10. (MAXF 401NL): − (− (T/C ≧ 50%)); Test/control (%) class at drug concentration [μM] 100. (MAXF 401NL): +++ (+++ (T/C ≦ 10%)); Test/control (%) class at drug concentration [μM] .1 (MAXF 401NL): − (− (T/C ≧ 50%)); Test/control (%) at drug concentration [μM] .001 (MAXF 401NL; s result of a dish): 67%; Test/control (%) at drug concentration [μM] .01 (MAXF 401NL; s result of a dish): 81%; Test/control (%) class at drug concentration [μM] .001 (MAXF 401NL; s result of a dish): − (− (T/C ≧ 50%)); Test/control (%) class at drug concentration [μM] .01 (MAXF 401NL; s result of a dish): − (− (T/C ≧ 50%)); Test/control (%) at drug concentration [μM] 1. (LXFL 529): 61%; Test/control (%) at drug concentration [μM] 10. (LXFL 529): 9%; Test/control (%) at drug concentration [μM] 100. (LXFL 529): 0%; Test/control (%) at drug concentration [μM] .001 (LXFL 529): 90%; Test/control (%) at drug concentration [μM] .01 (LXFL 529): 78%; Test/control (%) at drug concentration [μM] .1 (LXFL 529): 72%; Test/control (%) class at drug concentration [μM] 1. (LXFL 529): − (− (T/C ≧ 50%)); Test/control (%) class at drug concentration [μM] 10. (LXFL 529): +++ (+++ (T/C ≦ 10%)); Test/control (%) class at drug concentration [μM] 100. (LXFL 529): +++ (+++ (T/C ≦ 10%)); Test/control (%) class at drug concentration [μM] .001 (LXFL 529): − (− (T/C ≧ 50%)); Test/control (%) class at drug concentration [μM] .01 (LXFL 529): − (− (T/C ≧ 50%)); Test/control (%) class at drug concentration [μM] .1 (LXFL 529): − (− (T/C ≧ 50%)); Test/control (%) at drug concentration [μM] 10. (LXFL 529; listed as selenium): < 30%; Test/control (%) at drug concentration [μM] 1. (OVXF 1353): 90%; Test/control (%) at drug concentration [μM] 10. (OVXF 1353): 100%; Test/control (%) at drug concentration [μM] 100. (OVXF 1353): 0%; Test/control (%) at drug concentration [μM] .001 (OVXF 1353): 96%; Test/control (%) at drug concentration [μM] .01 (OVXF 1353): 91%; Test/control (%) at drug concentration [μM] .1 (OVXF 1353): 100%; Test/control (%) class at drug concentration [μM] 1. (OVXF 1353): − (− (T/C ≧ 50%)); Test/control (%) class at drug concentration [μM] 10. (OVXF 1353): − (− (T/C ≧ 50%)); Test/control (%) class at drug concentration [μM] 100. (OVXF 1353): +++ (+++ (T/C ≦ 10%)); Test/control (%) class at drug concentration [μM] .001 (OVXF 1353): − (− (T/C ≧ 50%)); Test/control (%) class at drug concentration [μM] .01 (OVXF 1353): − (− (T/C ≧ 50%)); Test/control (%) class at drug concentration [μM] .1 (OVXF 1353): − (− (T/C ≧ 50%)); Test/control (%) at drug concentration [μM] 1. (LXFS 650): 84%; Test/control (%) at drug concentration [μM] 10. (LXFS 650): 109%; Test/control (%) at drug concentration [μM] 100. (LXFS 650): 16%; Test/control (%) at drug concentration [μM] .001 (LXFS 650): 100%; Test/control (%) at drug concentration [μM] .01 (LXFS 650): 100%; Test/control (%) at drug concentration [μM] .1 (LXFS 650): 98%; Test/control (%) class at drug concentration [μM] 1. (LXFS 650): − (− (T/C ≧ 50%)); Test/control (%) class at drug concentration [μM] 10. (LXFS 650): − (− (T/C ≧ 50%)); Test/control (%) class at drug concentration [μM] 100. (LXFS 650): ++ (++ (10% < T/C < 30%)); Test/control (%) class at drug concentration [μM] .001 (LXFS 650): − (− (T/C ≧ 50%)); Test/control (%) class at drug concentration [μM] .01 (LXFS 650): − (− (T/C ≧ 50%)); Test/control (%) class at drug concentration [μM] .1 (LXFS 650): − (− (T/C ≧ 50%)); intestinal absorption, sometimes [1]: over 90%; plasma selenium ([2]; 8 hours after 10 mg selenium as sodium selenite): 770 μg/I; plasma selenium ([2]; 16 hours after 10 mg selenium as sodium selenite): 430 μg/I; time until selenium level in plasma again reached its initial value ([2]; after 10 mg selenium as sodium selenite): 24 h; dose from which gastrointestinal toxicity was observed (reversible) ([2]; infusion, tumor patients): about 20 mg selenium; selenium level in plasma ([2]; within 30 minutes after 10 mg selenium as sodium selenite, infused, rose from 200 μg/l): 1200 µg/L
